Test results taken from paper PMC8267671, “Midazolam’s Effects on Delayed-Rectifier K^+ Current and Intermediate-Conductance Ca^2+-Activated K^+ Channel in Jurkat T-lymphocytes” (International Journal of Molecular Sciences, 2021).

Assays:
Type in all cases: cell-based
[1] = target: T1, IKCa channel (KCa3.1) (Homo sapiens, UniProt O15554); assay: cell-attached single-channel recording; […] DCEBIO raised open probability in presence of MDZ
T1 construct: gene KCNN4; native channel in Jurkat T-lymphocytes
T1 sequence (O15554 whole entry): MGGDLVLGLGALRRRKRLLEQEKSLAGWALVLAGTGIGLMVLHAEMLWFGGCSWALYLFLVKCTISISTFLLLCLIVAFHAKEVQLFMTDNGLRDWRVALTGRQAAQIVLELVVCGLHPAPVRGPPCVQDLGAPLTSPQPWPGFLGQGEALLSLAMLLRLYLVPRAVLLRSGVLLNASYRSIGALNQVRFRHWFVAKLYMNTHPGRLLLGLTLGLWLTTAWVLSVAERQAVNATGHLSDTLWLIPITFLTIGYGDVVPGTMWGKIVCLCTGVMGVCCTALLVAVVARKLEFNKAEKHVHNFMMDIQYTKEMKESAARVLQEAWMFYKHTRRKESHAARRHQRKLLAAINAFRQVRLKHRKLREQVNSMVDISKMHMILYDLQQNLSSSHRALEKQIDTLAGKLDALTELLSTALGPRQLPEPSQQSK

[2] = target: T1, IKCa channel (KCa3.1); assay: cell-attached single-channel recording; open probability decreased at […]; details: read-out: % decrease of open probability at 30 μM
[3] = target: T2, KV1.3 (delayed-rectifier K+ channel, IK(DR)) (Homo sapiens, UniProt P22001); assay: whole-cell patch clamp of native IK(DR), concentration-response (kinetic KD […])
T2 construct: gene KCNA3; native channel in Jurkat T-lymphocytes
T2 sequence (P22001 whole entry): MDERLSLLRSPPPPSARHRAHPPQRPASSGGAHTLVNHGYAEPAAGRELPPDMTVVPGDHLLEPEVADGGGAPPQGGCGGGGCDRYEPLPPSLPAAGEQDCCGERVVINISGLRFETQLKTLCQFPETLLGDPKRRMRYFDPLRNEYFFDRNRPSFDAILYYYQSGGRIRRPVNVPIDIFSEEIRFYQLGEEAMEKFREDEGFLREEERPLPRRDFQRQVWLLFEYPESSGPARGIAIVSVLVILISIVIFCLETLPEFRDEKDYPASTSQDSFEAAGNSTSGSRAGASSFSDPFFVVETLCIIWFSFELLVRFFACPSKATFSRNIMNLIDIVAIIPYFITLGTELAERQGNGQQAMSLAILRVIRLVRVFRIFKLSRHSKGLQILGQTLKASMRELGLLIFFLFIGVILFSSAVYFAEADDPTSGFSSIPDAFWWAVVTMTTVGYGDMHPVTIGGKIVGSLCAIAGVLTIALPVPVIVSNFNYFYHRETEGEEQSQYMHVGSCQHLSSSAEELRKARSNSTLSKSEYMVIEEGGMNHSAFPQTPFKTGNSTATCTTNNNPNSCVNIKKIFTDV

Structure (SMILES) | cell-attached single-channel recording; 3 μM DCEBIO raised open probability in p [1] | inhibition at 30 µM [2] [%] | IC50 [3] [µM]
CCn1c(=O)[nH]c2cc(Cl)c(Cl)cc21 [DCEBIO, 5,6-dichloro-1-ethyl-1,3-dihydro-2H-benzimidazol-2-one] | 0.121 ± 0.006 open probability (with 3 µM DCEBIO plus 30 µM MDZ) |  | 
Cc1ncc2n1-c1ccc(Cl)cc1C(c1ccccc1F)=NC2 [MDZ, 8-chloro-6-(2-fluorophenyl)-1-methyl-4H-imidazo [1,5-a][1,4] benzodiazepine] |  | 85.7 ± 2.5 | 5.87
